Consider 59 sequences from the supplement of paper PMC11208160.
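Note: IS621 recombinase and bridge RNA in Escherichia coli cells.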

The data set is described as follows: recombinant barcode read abundance after kanamycin selection (control-corrected) (log10(CPM+1)); higher = more efficient recombination; sequences stand for … in AGTGCAGAGAAAATCGGCCAGTTTTCTCTGCCTGCAGTCCGCATGCCGT…AGATTTATGCAGCGGACTGCCTTTCTCCCAAAGTGATAAACCGGACAGTATCATGGACCGGTTTTCCCGGTAATCCGTATTTGCAAGGTTGGTTTCACT; site = the 11-nt target. The procedure, abridged:
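Recombination efficiency comes from barcode counts at recombinant junctions, converted to counts per million, averaged and corrected against the control. Values appear as log10(CPM+1). They were obtained from a pooled E. coli screen in which each oligo paired a target with an IS621 bridge RNA target-binding loop, and cells were plated in duplicate on chloramphenicol/ampicillin LB agar or on chloramphenicol/ampicillin/kanamycin with 0.1 mM IPTG.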
Regarding “CGAGCAACTTGGGTTCTAACCTGTTGCTT (site CGTGTAACTAA)”, the “recombinant barcode read abundance (log10)” value stood at 0.181. Turning to “CGAGCTCCTTGGGTTCTAACCTGTTGCAT (site CGAGCTCCTAA)”, the “recombinant barcode read abundance (log10)” value was 0.0507.

Turning to “CGAGCTCCTTGGGTTCTAACCTGTTGCAT (site CGAGCTCCTAC)”, the “recombinant barcode read abundance (log10)” value is 0.154. As to “CGAGCTCCTTGGGTTCTAACCTGTTGCAT (site CGAGCTCCTAG)”, the “recombinant barcode read abundance (log10)” value worked out at 0.425.

“CGAGCTCCTTGGGTTCTAACCTGTTGCAT (site CGAGCTCCTAT)”: the “recombinant barcode read abundance (log10)” value came out at 1.86. On to “CGAGCTCCTTGGGTTCTAACCTGTTGCCC (site CGAGCTCCTGG)”, for which the “recombinant barcode read abundance (log10)” value was 0.591. On to “CGAGCTCCTTGGGTTCTAACCTGTTGCCC (site GGAGCTCCTTG)”, for which the “recombinant barcode read abundance (log10)” value came out at 0.512.

Regarding “CGAGCTCCTTGGGTTCTAACCTGTTGCTT (site CGAGCTCCTAA)”, the “recombinant barcode read abundance (log10)” value amounted to 0.324. In the case of “CGAGCTCCTTGGGTTCTAACCTGTTGCTT (site CGAGCTCCTAC)” it was 0.0191; in that of “CGAGCTCCTTGGGTTCTAACCTGTTGCTT (site CGAGCTCCTAG)”, 1.1; in that of “CGAGCTCCTTGGGTTCTAACCTGTTGCTT (site CGAGCTCCTAT)”, 0.337. In the case of “CGAGGGGCTTGGGTTCTAACCTGTTGCCT (site CGAGGGACTAG)” it was 0.127; in that of “CGAGGGGCTTGGGTTCTAACCTGTTGCCT (site CGAGGGCCTAG)”, 0.0526; in that of “CGAGGGGCTTGGGTTCTAACCTGTTGCCT (site CGAGGGGCTAG)”, 0.369. Turning to “CGAGGGGCTTGGGTTCTAACCTGTTGCCT (site CGAGGGTCTAG)”, the “recombinant barcode read abundance (log10)” value was 0.35.

In the case of “CGATAGCCTTGGGTTCTAACCTGTTGCCT (site AGATAGCCTAG)”, the “recombinant barcode read abundance (log10)” value worked out at 0.024. In the case of “CGATAGCCTTGGGTTCTAACCTGTTGCCT (site CGATAGCCTAG)”, the “recombinant barcode read abundance (log10)” value amounted to 0.643.

Turning to “CGATAGCCTTGGGTTCTAACCTGTTGCCT (site GGATAGCCTAG)”, the “recombinant barcode read abundance (log10)” value was 0.132.

As to “CGATAGCCTTGGGTTCTAACCTGTTGCCT (site TGATAGCCTAG)”, the “recombinant barcode read abundance (log10)” value stood at 0.

“CGATCTACTTGGGTTCTAACCTGTTGCAG (site AAGGGGCCTAG)”: the “recombinant barcode read abundance (log10)” value was found to be 0.23. Under “CGATCTACTTGGGTTCTAACCTGTTGCAG (site CGATCTACTCT)” stands 0.0308. Regarding “CGATTAACTTGGGTTCTAACCTGTTGCCT (site CGATTAACTAG)”, the “recombinant barcode read abundance (log10)” value amounted to 0.139. On to “CGATTAACTTGGGTTCTAACCTGTTGCCT (site CGATTACCTAG)”, for which the “recombinant barcode read abundance (log10)” value was 0.361.

Consider “CGATTAACTTGGGTTCTAACCTGTTGCCT (site CGATTAGCTAG)”, for which the “recombinant barcode read abundance (log10)” value was 0.107. In the case of “CGATTAACTTGGGTTCTAACCTGTTGCCT (site CGATTATCTAG)” it was 0.0439. Under “CGCAAATCTTGGGTTCTAACCTGTTGCCT (site CGAAAATCTAG)” stands 0.0245.

As to “CGCAAATCTTGGGTTCTAACCTGTTGCCT (site CGCAAATCTAG)”, the “recombinant barcode read abundance (log10)” value was found to be 0.0815. For the sequence “CGCAAATCTTGGGTTCTAACCTGTTGCCT (site CGGAAATCTAG)”, the “recombinant barcode read abundance (log10)” value was 0.0907. As for “CGCAAATCTTGGGTTCTAACCTGTTGCCT (site CGTAAATCTAG)”, the “recombinant barcode read abundance (log10)” value is 0.166.

Take “CGCCACCCTTGGGTTCTAACCTGTTGCCT (site CGCCACCCTAG)”: the “recombinant barcode read abundance (log10)” value was found to be 0.165. Turning to “CGCCACCCTTGGGTTCTAACCTGTTGCCT (site CTGCACCCTAG)”, the “recombinant barcode read abundance (log10)” value worked out at 0.0944.

As to “CGCCCGCCTTGGGTTCTAACCTGTTGCCT (site AGCCCGCCTAG)”, the “recombinant barcode read abundance (log10)” value came out at 0.165. Under “CGCCCGCCTTGGGTTCTAACCTGTTGCCT (site CGCCCGCCTAG)” stands 0.0631; under “CGCCCGCCTTGGGTTCTAACCTGTTGCCT (site GGCCCGCCTAG)”, 0.109; under “CGCCCGCCTTGGGTTCTAACCTGTTGCCT (site TGCCCGCCTAG)”, 0.0262. In the case of “CGCCCTACTTGGGTTCTAACCTGTTGCTT (site CGCCCTACTAA)”, the “recombinant barcode read abundance (log10)” value was 0.311. Under “CGCCCTACTTGGGTTCTAACCTGTTGCTT (site CGCCTAACTAA)” stands 0.491. With “CGCCTAACTTGGGTTCTAACCTGTTGCTT (site CGCCCTACTAA)”, the “recombinant barcode read abundance (log10)” value amounted to 0.0705. Consider “CGCCTAACTTGGGTTCTAACCTGTTGCTT (site CGCCTAACTAA)”, for which the “recombinant barcode read abundance (log10)” value worked out at 0.126. Under “CGCCTCCCTTGGGTTCTAACCTGTTGCAT (site CGCCTCCCTAT)” stands 0.159. In the case of “CGCCTCCCTTGGGTTCTAACCTGTTGCAT (site GGCCTCCCTAT)” it was 0. Consider “CGCGATCCTTGGGTTCTAACCTGTTGCGT (site AGCGACCCTAC)”, for which the “recombinant barcode read abundance (log10)” value amounted to 0.0431. “CGCGATCCTTGGGTTCTAACCTGTTGCGT (site CGCGATCCTAC)”: the “recombinant barcode read abundance (log10)” value is 0.834.

On to “CGCGCTCCTTGGGTTCTAACCTGTTGCCT (site CGCGATCCTAG)”, for which the “recombinant barcode read abundance (log10)” value stood at 0.0445. Under “CGCGCTCCTTGGGTTCTAACCTGTTGCCT (site CGCGCTCCTAG)” stands 0.245; under “CGCGCTCCTTGGGTTCTAACCTGTTGCCT (site CGCGGTCCTAG)”, 0.0941; under “CGCGCTCCTTGGGTTCTAACCTGTTGCCT (site CGCGTTCCTAG)”, 0.0658.

“CGCTTACCTTGGGTTCTAACCTGTTGCCT (site AGCTTACCTAG)”: the “recombinant barcode read abundance (log10)” value amounted to 0.143. Consider “CGCTTACCTTGGGTTCTAACCTGTTGCCT (site CGCTTACCTAG)”, for which the “recombinant barcode read abundance (log10)” value was determined as 0.0899. For the sequence “CGCTTACCTTGGGTTCTAACCTGTTGCCT (site GGCTTACCTAG)”, the “recombinant barcode read abundance (log10)” value came out at 0.0208. In the case of “CGCTTACCTTGGGTTCTAACCTGTTGCCT (site TGCTTACCTAG)”, the “recombinant barcode read abundance (log10)” value came to 0.192.

With “CGCTTGTCTTGGGTTCTAACCTGTTGCCG (site CGCTTGTCTCG)”, the “recombinant barcode read abundance (log10)” value is 0.134. On to “CGCTTGTCTTGGGTTCTAACCTGTTGCCG (site CTCTTGTCTTG)”, for which the “recombinant barcode read abundance (log10)” value was 0.0615. In the case of “CGGACGCCTTGGGTTCTAACCTGTTGCCT (site CGGACGACTAG)” it was 0.352; in that of “CGGACGCCTTGGGTTCTAACCTGTTGCCT (site CGGACGCCTAG)”, 0.892.

With “CGGACGCCTTGGGTTCTAACCTGTTGCCT (site CGGACGGCTAG)”, the “recombinant barcode read abundance (log10)” value was determined as 1.51. Under “CGGACGCCTTGGGTTCTAACCTGTTGCCT (site CGGACGTCTAG)” stands 0.25; under “CGGACTTCTTGGGTTCTAACCTGTTGCCT (site CAGACTTCTAG)”, 0.182; under “CGGACTTCTTGGGTTCTAACCTGTTGCCT (site CCGACTTCTAG)”, 0.049.
